The record followed here is patent US20250204515A1, “Heparanase Inhibition for Graft Protection” (University of Pittsburgh - Of the Commonwealth System of …, priority 2022, published 2025).

The test system of data set [1] is glycosaminoglycans (GAGs), syndecan-1. As to the kind of experiment: Glycocalyx shedding in rat lungs during EVLP (GAGs, syndecan-1 ELISA, immunofluorescence). As for the experimental part: Syndecan-1 ELISA: Syndecan-1 concentrations in EVLP perfusate were quantitated using ELISA (Immunotag™ Rat Syndecan-1 ELISA, G-Biosciences, Geno Technology, Inc., St. Louis, MO). ELISA was performed according to the manufacturer's instructions using perfusate samples acquired after 4 hours of EVLP.
Determination of glycosaminoglycans (GAGS): The concentration of GAGs in rat EVLP perfusate at 4 hours was quantitated using 1,9-dimethylmethylene blue (DMMB, Millipore Sigma). The DMMB solution (pH˜3.0) was prepared by dissolving 16 mg/I DMMB in distilled H2O containing 3.04 g/I glycine, 1.6 g/l NaCl and 95 ml 0.1 M acetic acid. Briefly, 1 ml DMMB solution was mixed with 100 μl EVLP perfusate then incubated for 18 h at room temperature. The tubes were then centrifuged at 14,000 rpm for 20 min at 4° C. Supernatants were carefully decanted, 100 μl dissolvent buffer (4 M guanidine hydrochloride, 50 mM sodium acetate, 10% propan-1-ol, pH 6.8) was added to each pellet, and the tubes were incubated at 40° C. and vortexed until GAG-DMMB pellets were completely dissolved. GAG content in each sample was measured spectrophotometrically at 656 nm.
(§1) Tissue staining and histopathological analysis: Formalin-fixed, paraffin-embedded lung tissues collected 2 hours after transplantation were sectioned to 4 μm thickness and stained with hematoxylin and eosin. In parallel, sections of tissue collected after 4 hours of EVLP were stained for immunofluorescence imaging using primary antibodies for syndecan-1 (DL-101) (#sc-12765, Santa Cruz) and caveolin-1 (#3238, Cell Signaling Technology, Danvers, MA) and with Hoechst 33342 dye (Thermo Scientific). Donkey Cy3-conjugated anti-mouse IgG (#AP192C, MilliporeSigma, Burlington, MA) and Cy5-conjugated goat anti-rabbit IgG (#A10523, Thermo Scientific) secondary antibodies were used to detect primary antibodies. Stained slides were scanned with a whole-slide image scanner (Axio Scan.Z1; Carl Zeiss AB, Oberkochen, Germany) and analyzed with digital image processing software (ZEN lite blue edition; Carl Zeiss).
(In general: ELISA stands for enzyme-linked immunosorbent assay.)

In data set [2] the test system is HPSE1, MMP2, IL-6, IL-1β, TNF-α mRNA; IκB-α. As to the kind of experiment: Real-time RT-PCR and western blotting in rat lung tissue after 4 hours of EVLP. Here is the method:
(§2) Graft tissues collected after 4 hours of EVLP and 2 hours after reperfusion were examined for relative mRNA expression levels of interleukin (IL)-6, IL-1, tumor necrosis factor (TNF)-α, and glyceraldehyde-3-phosphate dehydrogenase (GAPDH). Gene expression levels were normalized to GAPDH mRNA levels.
Western blotting: Total isolated proteins were extracted/resolved by 10% SDS-PAGE followed by transfer to 0.2 μm nitrocellulose membranes (Bio-Rad Laboratories, Hercules, CA, USA). Membranes were blocked with 5% non-fat milk at room temperature for 2 hours and then incubated overnight at 4° C. with the following primary antibodies: inhibitor of KB-α (IκB-α; #9242, Cell Signaling Technology, Inc., Danvers, MA) and β-actin (#A1978, Millipore-Sigma). Membranes were then incubated with either goat anti-mouse IgG (H+L) (#31430, Thermo Fisher Scientific Inc.; 1:5000) or goat anti-rabbit IgG (H+L) (#31460, Thermo Fisher Scientific Inc.; 1:3000) horseradish peroxidase-conjugated polyclonal secondary antibodies at room temperature for 2 hours. Proteins were visualized using an enhanced chemiluminescence kit (Abcam), and protein bands were imaged and analyzed using Image Lab software (Version 6.0; Bio-Rad Laboratories, Inc., Hercules, CA). The intensities of protein bands were quantitated by Image J software (National Institutes of Health, Bethesda, MD).

A further data set concerns rat lungs. As to the kind of experiment: Rat EVLP for 4 hours with HPSE inhibitors in the perfusate: physiology, endothelial barrier, edema. The conditions noted are these: heparin 1000-U/hour or SF4 1 μM in perfusate.
The next data set deals with rat lung grafts. As to the kind of experiment: Rat orthotopic left lung transplantation following EVLP. The data set is classed as in vivo. As for the experimental part: Rat orthotopic left lung transplantation following EVLP: Orthotopic, single-lung transplantation of the left lung was performed using the 3-cuff method. After EVLP for 4 hours, the lungs were cooled with 4° C. Perfadex on the EVLP system and stored at 4° C. for 1 hour prior to transplantation. The recipient animals were sacrificed 2 hours after reperfusion. When analyzing graft function, the native lung was clamped, 100% 02 was administered for 5 minutes through a ventilator, and the recipient's blood was sampled from the graft pulmonary vein for blood gas analysis.
as §2, §1

The test system of the next data set is heparanase (HPSE). As to the kind of experiment: In vitro β-D-glucuronidase activity assay (4-MUG substrate). The conditions noted are these: in vitro, FIG. 8.
Data set [3] relates to human lung microvascular endothelial cells (HLMVECs). As to the kind of experiment: In-vitro cellular toxicity test for HPSE inhibitor candidates. The conditions noted are these: HLMVECs, 24 hours. As for the experimental part: In-vitro cellular toxicity test for HPSE Inhibitor candidates: Human lung microvascular endothelial cells (HLMVECs) were obtained from the American Type Culture Collection (Rockville, MD, USA). Cells were cultured in a humidified incubator at 37° C. and 5% CO2 and grown in endothelial growth medium (EGM™-2 Endothelial Cell Growth Medium-2, Lonza, Basel, Switzerland) supplemented with 2% heat-inactivated fetal bovine serum and 0.04% hydrocortisone. Cell media was replaced every 48 hours, and the cells were split upon 80-90% confluence.
Final tested concentrations of HPSE inhibitors were calculated based upon repeatable in vitro dose-response studies. After 24 hours incubation, cell viability was confirmed by Trypan blue exclusion assay. Total mRNA was isolated using Trizol (Thermo Fisher Scientific Inc., Waltham, MA) and relative messenger RNA (mRNA) expression levels of hemeoxygenase-1 (HO-1), interleukin (IL)-6, tumor necrosis factor (TNF)-α, monocyte chemoattractant protein (MCP)-1, B-cell lymphoma 2 Associated X (Bax), B-cell lymphoma 2 (Bcl-2), B-cell lymphoma-extra-large (Bcl-xL) were quantified by SYBR Green 2-step, real-time, reverse transcription-polymerase chain reaction (RT-PCR). Relative gene expression levels were normalized to mRNA expression of glyceraldehyde-3-phosphate dehydrogenase (GAPDH) and compared to relative mRNA expression levels in control-treated HLMVEC.

The mark [4] stands for this setting: 2 hours after transplant, vs untreated control and heparin-pretreated lungs.
Setting [5] is: 100 nM SF4, 250 mM amodiaquine, 250 mM triazolothiadiazoles.

Procedure for heparanase (HPSE): In vitro β-D-glucuronidase activity assay Heparanase activity was measured via β-Glucuronidase activity assay using 4-methylumbelliferyl-β-D-glucuronide (4-MUG) substrate (Millipore-Sigma). As a source of enzymes, platelet rich plasma (PRP) obtained from rat whole blood or rat lung whole tissue lysate, was used. […] Fluorescence (λex 360 nm/λem 460 nm) was continuously measured for 60 minutes using a fluorescence microplate reader (BioTech Synergy HTX, Agilent Technologies, Santa Clara, CA).

For the compound `Cl.O=C(O)[C@H]1CN[C@H](NC(=O)C(F)(F)F)[C@@H](O)[C@H]1O` [SF4, (3S,4S,5R,6R)-4,5-dihydroxy-6-[(2,2,2-trifluoroacetyl)amino]piperidine-3-carboxylic acid], the “syndecan-1 immunofluorescent staining of lung endothelial lumen” value in data set [1] (after 4-hours EVLP, vs controls and heparin-treated) is given as “significantly increased staining”. In addition, the “syndecan-1 concentration in EVLP perfusate” value in data set [1] (after 4 hours EVLP, SF4 vs heparin-treated, heparin vs controls) is on record as “significantly lower”. Further, the “GAGs content in EVLP perfusate” value in data set [1] (at 4-hours EVLP, vs controls) was “significantly reduced”. Also, in data set [2] (lung tissue after 4-hours EVLP), the “IL-1β mRNA expression” value is recorded as “significantly downregulated”, the “IL-6 mRNA expression” value is “significantly downregulated” and the “TNF-α mRNA expression” value is “significantly downregulated”. Moreover, the “IκB-α expression (western blot)” value in data set [2] (lung tissue after 4-hours EVLP, vs control and heparin groups) is recorded as “significantly stabilized”. The “HPSE1 mRNA expression” value in data set [2] (lung tissue after 4 hours of EVLP, vs sham) is recorded as “not altered”. The “dynamic lung compliance (Cdyn) during EVLP” value with rat lungs (4-hour EVLP, vs control) is “neither heparin nor SF4 altered Cdyn”. Moreover, the “Evans blue dye (EBD) accumulation in lung tissue” value with rat lungs (after 4-hours EVLP) was “markedly decreased”. For the same compound, in the data set with rat lung grafts (2 hours after transplant following 4 hours of EVLP), the “H&E histology of grafts” value was “reduced swollen alveolar walls, congestion in the blood vessels, and fluid leaks”. For the same compound, in the data set with rat lung grafts (setting [4]), the “IL-1β mRNA expression” value is “significantly lower”, the “IL-6 mRNA expression” value is recorded as “significantly lower” and the “TNF-α mRNA expression” value is recorded as “significantly lower”.

As to `O=C(O)Cc1ccc2oc(-c3ccc(NC(=O)/C=C/c4ccc(Br)cc4)c(F)c3)nc2c1` [OGT-2113], in the data set on heparanase (HPSE), the “β-D-glucuronidase activity, dose response” value was “dose-dependent”.

On to `CCN(CC)Cc1cc(Nc2ccnc3cc(Cl)ccc23)ccc1O` [Amodiaquine, amodiaquine], for which the “Relative mRNA expression (compared to control) Bax” value in data set [3] (100 nM SF4) was found to be 0.71. In data set [3] (setting [5]), the “Relative mRNA expression (compared to control) Bcl-xl” value was determined as 1.30, the “Relative mRNA expression (compared to control) HO-1” value turned out to be 2.94, the “Relative mRNA expression (compared to control) IL6” value turned out to be 13.55 and the “Relative mRNA expression (compared to control) MCP1” value is listed as 3.45. In the data set on heparanase (HPSE), the “β-D-glucuronidase activity, dose response” value was “dose-dependent”.
